Reference: ChEMBL document CHEMBL1201862, “PubChem BioAssay data set” (2004)
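Growth conditions: 96-well plates. Treatment: test compound, 48 hours, 5 concentrations. Analysis: linear interpolation between bracketing concentrations; unreached endpoints set to highest concentration. GI50 marks 50% less growth.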 Active and inactive are the calls of the source. Rule as the data show it: active = GI50 up to about 1.1 µM and inactive = higher.

Assays:
Experiment in all cases: NCI anticancer screen, dose series, 48 h
[1] = tested on: 786-0
[2] = tested on: A498
[3] = tested on: ACHN
[4] = tested on: CCRF-CEM
[5] = tested on: COLO 205
[6] = tested on: EKVX
[7] = tested on: HOP-92
[8] = tested on: HT-29
[9] = tested on: LOX IMVI
[10] = tested on: MCF7
[11] = tested on: MDA-MB-231
[12] = tested on: MOLT-4
[13] = tested on: OVCAR-4
[14] = tested on: SF-295
[15] = tested on: SK-MEL-28
[16] = tested on: SNB-75
[17] = tested on: TK-10
[18] = tested on: CAKI-1
[19] = tested on: T47D

## COc1cc(C(=O)O[C@H]2CCC3CCC2N3C)cc(OC)c1OC (stereo partly specified)
[1]
  GI50: > 100 µM (inactive)
[2]
  GI50: 36.3 µM (inactive)
[3]
  GI50: > 100 µM (inactive)
[4]
  GI50: > 100 µM (inactive)
[5]
  GI50: > 100 µM (inactive)
[6]
  GI50: > 100 µM (inactive)
[7]
  GI50: 34.4 µM (inactive)
[8]
  GI50: > 100 µM (inactive)
[9]
  GI50: > 100 µM (inactive)
[10]
  GI50: > 100 µM (inactive)
[11]
  GI50: > 100 µM (inactive)
[12]
  GI50: > 100 µM (inactive)
[13]
  GI50: > 100 µM (inactive)
[14]
  GI50: > 100 µM (inactive)
[15]
  GI50: > 100 µM (inactive)
[16]
  GI50: 58.9 µM (inactive)
[17]
  GI50: > 100 µM (inactive)

## CC1CC(C)C(C#N)N(C)c2ccccc21 (stereo unspecified)
[1]
  GI50: > 100 µM (inactive)
[2]
  GI50: > 100 µM (inactive)
[3]
  GI50: > 100 µM (inactive)
[18]
  GI50: > 100 µM (inactive)
[4]
  GI50: 51.8 µM (inactive)
[5]
  GI50: > 100 µM (inactive)
[6]
  GI50: > 100 µM (inactive)
[8]
  GI50: 78.3 µM (inactive)
[10]
  GI50: 81.3 µM (inactive)
[11]
  GI50: > 100 µM (inactive)
[12]
  GI50: 66.7 µM (inactive)
[13]
  GI50: > 100 µM (inactive)
[14]
  GI50: > 100 µM (inactive)
[15]
  GI50: > 100 µM (inactive)
[16]
  GI50: > 100 µM (inactive)
[19]
  GI50: > 100 µM (inactive)
[17]
  GI50: > 100 µM (inactive)

## O=c1[nH]c(=O)n(C2CC(O)C(COP(=O)(O)OC3CC(n4cc(F)c(=O)[nH]c4=O)OC3COP(=O)(O)OC3CC(n4cc(F)c(=O)[nH]c4=O)OC3COP(=O)(O)OC3CC(n4cc(F)c(=O)[nH]c4=O)OC3COP(=O)(O)OC3CC(n4cc(F)c(=O)[nH]c4=O)OC3COP(=O)(O)OC3CC(n4cc(F)c(=O)[nH]c4=O)OC3COP(=O)(O)OC3CC(n4cc(F)c(=O)[nH]c4=O)OC3COP(=O)(O)OC3CC(n4cc(F)c(=O)[nH]c4=O)OC3COP(=O)(O)OC3CC(n4cc(F)c(=O)[nH]c4=O)OC3COP(=O)(O)OC3CC(n4cc(F)c(=O)[nH]c4=O)OC3CO)O2)cc1F (stereo unspecified)
[1]
  GI50: < 0.005 µM (active)
[2]
  GI50: < 0.005 µM (active)
[3]
  GI50: < 0.005 µM (active)
[18]
  GI50: < 0.005 µM (active)
[5]
  GI50: 0.129 µM (active)
[7]
  GI50: 0.0202 µM (active)
[8]
  GI50: 0.481 µM (active)
[9]
  GI50: < 0.005 µM (active)
[10]
  GI50: < 0.005 µM (active)
[11]
  GI50: 9.33 µM (inactive)
[12]
  GI50: 0.0052 µM (active)
[13]
  GI50: 0.661 µM (active)
[14]
  GI50: < 0.005 µM (active)
[15]
  GI50: 0.286 µM (active)
[16]
  GI50: 0.353 µM (active)
[19]
  GI50: 0.0473 µM (active)
[17]
  GI50: 0.493 µM (active)

## COc1ccc(/C=C2\CN(C)C/C(=C\c3ccc(OC)cc3)C2=O)cc1
[1]
  GI50: 28.6 µM (inactive)
[2]
  GI50: > 100 µM (inactive)
[3]
  GI50: > 100 µM (inactive)
[18]
  GI50: > 100 µM (inactive)
[4]
  GI50: > 100 µM (inactive)
[5]
  GI50: > 100 µM (inactive)
[6]
  GI50: > 100 µM (inactive)
[7]
  GI50: > 100 µM (inactive)
[8]
  GI50: > 100 µM (inactive)
[9]
  GI50: > 100 µM (inactive)
[11]
  GI50: > 100 µM (inactive)
[12]
  GI50: > 100 µM (inactive)
[13]
  GI50: > 100 µM (inactive)
[14]
  GI50: > 100 µM (inactive)
[15]
  GI50: > 100 µM (inactive)
[16]
  GI50: > 100 µM (inactive)
[19]
  GI50: > 100 µM (inactive)
[17]
  GI50: > 100 µM (inactive)

## O=C1C(c2ccccc2)=[N+]([O-])c2ccccc21
[1]
  GI50: 17.7 µM (inactive)
[2]
  GI50: 17.9 µM (inactive)
[3]
  GI50: 19.2 µM (inactive)
[4]
  GI50: 4.83 µM (inactive)
[5]
  GI50: 16.2 µM (inactive)
[6]
  GI50: 15.1 µM (inactive)
[7]
  GI50: 6.79 µM (inactive)
[8]
  GI50: 20.2 µM (inactive)
[9]
  GI50: 3.35 µM (inactive)
[10]
  GI50: 1.64 µM (inactive)
[11]
  GI50: 11.7 µM (inactive)
[12]
  GI50: 21.6 µM (inactive)
[13]
  GI50: 4.04 µM (inactive)
[14]
  GI50: 17.4 µM (inactive)
[15]
  GI50: 17.1 µM (inactive)
[16]
  GI50: 17 µM (inactive)
[19]
  GI50: 1.97 µM (inactive)
[17]
  GI50: 20 µM (inactive)

## Cc1ccc(NC(=O)C(=O)C(C2C(C)CC(=O)C2CC(=O)O)[N+](=O)[O-])cc1 (stereo unspecified)
[1]
  GI50: > 100 µM (inactive)
[2]
  GI50: > 100 µM (inactive)
[3]
  GI50: > 100 µM (inactive)
[18]
  GI50: > 100 µM (inactive)
[4]
  GI50: > 100 µM (inactive)
[5]
  GI50: > 100 µM (inactive)
[6]
  GI50: > 100 µM (inactive)
[7]
  GI50: > 100 µM (inactive)
[8]
  GI50: > 100 µM (inactive)
[9]
  GI50: > 100 µM (inactive)
[12]
  GI50: > 100 µM (inactive)
[13]
  GI50: > 100 µM (inactive)
[14]
  GI50: > 100 µM (inactive)
[15]
  GI50: > 100 µM (inactive)
[16]
  GI50: > 100 µM (inactive)
[17]
  GI50: > 100 µM (inactive)

## O=C1C/C(Br)=C\c2ccccc2-c2ccccc21
[1]
  GI50: 1.4 µM (inactive)
[2]
  GI50: 8.51 µM (inactive)
[3]
  GI50: 1.91 µM (inactive)
[18]
  GI50: 1.98 µM (inactive)
[4]
  GI50: 1.06 µM (active)
[5]
  GI50: 3.76 µM (inactive)
[6]
  GI50: 9.82 µM (inactive)
[7]
  GI50: 1.85 µM (inactive)
[8]
  GI50: 2.07 µM (inactive)
[9]
  GI50: 0.869 µM (active)
[12]
  GI50: 2.16 µM (inactive)
[13]
  GI50: 2.53 µM (inactive)
[14]
  GI50: 4.98 µM (inactive)
[15]
  GI50: 1.05 µM (active)
[16]
  GI50: 2.26 µM (inactive)
[17]
  GI50: 4.78 µM (inactive)

## O=C1NC2=C(CCCCC/C2=N\O)C12CCCCCC2
[1]
  GI50: > 100 µM (inactive)
[2]
  GI50: > 100 µM (inactive)
[3]
  GI50: > 100 µM (inactive)
[18]
  GI50: > 100 µM (inactive)
[4]
  GI50: > 100 µM (inactive)
[5]
  GI50: > 100 µM (inactive)
[6]
  GI50: > 100 µM (inactive)
[7]
  GI50: > 100 µM (inactive)
[8]
  GI50: > 100 µM (inactive)
[9]
  GI50: > 100 µM (inactive)
[12]
  GI50: > 100 µM (inactive)
[13]
  GI50: > 100 µM (inactive)
[14]
  GI50: > 100 µM (inactive)
[15]
  GI50: > 100 µM (inactive)
[16]
  GI50: > 100 µM (inactive)
[17]
  GI50: > 100 µM (inactive)

## Clc1ccc(COC(Cn2ccnc2)c2ccc(Cl)cc2Cl)c(Cl)c1 (stereo unspecified) [MICONAZOLE NITRATE]
[1]
  GI50: 10.9 µM (inactive)
[3]
  GI50: 12.2 µM (inactive)
[18]
  GI50: 10.5 µM (inactive)
[4]
  GI50: 5.82 µM (inactive)
[6]
  GI50: 10.5 µM (inactive)
[9]
  GI50: 9.18 µM (inactive)
[10]
  GI50: 14.7 µM (inactive)
[11]
  GI50: 11.9 µM (inactive)
[12]
  GI50: 3.36 µM (inactive)
[13]
  GI50: 11.9 µM (inactive)
[14]
  GI50: 10.8 µM (inactive)
[15]
  GI50: 12.7 µM (inactive)
[19]
  GI50: 4.57 µM (inactive)

## CC1=NN(c2nc(N)nc(/C(C#N)=C\c3csc([N+](=O)[O-])c3)n2)C(C)(C)C1
[1]
  GI50: 17.6 µM (inactive)
[2]
  GI50: > 100 µM (inactive)
[3]
  GI50: 35 µM (inactive)
[18]
  GI50: 44.5 µM (inactive)
[4]
  GI50: 2.23 µM (inactive)
[6]
  GI50: 30.2 µM (inactive)
[7]
  GI50: 54.7 µM (inactive)
[8]
  GI50: 37.3 µM (inactive)
[9]
  GI50: 71.3 µM (inactive)
[10]
  GI50: 35.6 µM (inactive)
[11]
  GI50: 26.9 µM (inactive)
[12]
  GI50: > 100 µM (inactive)
[13]
  GI50: 21.9 µM (inactive)
[14]
  GI50: 45.5 µM (inactive)
[15]
  GI50: 59 µM (inactive)
[19]
  GI50: 23.7 µM (inactive)
[17]
  GI50: 34.2 µM (inactive)

## CN(C)CCC[N+]1=Nc2cccc3cccc(c23)N1
[1]
  GI50: 49.8 µM (inactive)
[2]
  GI50: 27.4 µM (inactive)
[3]
  GI50: 50.7 µM (inactive)
[18]
  GI50: 37.1 µM (inactive)
[4]
  GI50: 29.9 µM (inactive)
[5]
  GI50: > 10 µM (inactive)
[6]
  GI50: > 100 µM (inactive)
[7]
  GI50: 66.7 µM (inactive)
[8]
  GI50: 33.6 µM (inactive)
[9]
  GI50: 31.9 µM (inactive)
[12]
  GI50: 24.4 µM (inactive)
[13]
  GI50: 47.1 µM (inactive)
[14]
  GI50: > 100 µM (inactive)
[15]
  GI50: 56.2 µM (inactive)
[16]
  GI50: > 100 µM (inactive)
[17]
  GI50: 59.4 µM (inactive)
